Data taken from US20040029965A1, “Formulations for reducing or eliminating toxicity of enviromental hormones containing ursodeoxycholic acid” (priority 2000, published 2004).

System: C57B1/6J mice
Test: Organ weights (liver, kidneys, testes, epididymides) of mice after a single subcutaneous injection of TCDD
Type: in vivo
Protocol: Male C57B1/6J mice of 5 weeks old having the average weight of 18-22 g which had been bred in CRJ (Charles River in Japan) were purchased and used in this example as experimental animals. Those mice were acclimated under the constant breeding condition, i.e. the temperature of 24±1° C., the humidity of 60±10% and the light and darkness cycle of 12 hours, for one week and thereafter, utilized in the experiment.
2,3,7,8-tetrachlorodibenzo-p-dioxin (TCDD) dissolved in toluene (purity of 95% or more as a result of gas chromatography analysis), manufactured by Chem. Services Inc. in USA, was volatilized with nitrogen to obtain powder. The obtained powder was dissolved in a mixed solvent containing acetone and corn oil with a volume ratio of 1:6. The resulting solution each containing 110, 27.5 and 6.9 μg/kg of TCDD was subcutaneously injected to mice at a volume of 5 ml per body weight. […] The mice were supplied with the feed from 10 days before (pre-administration) to 60 days after administration of TCDD (post-administration).
Upon completion of the experiment for 60 days, the experimental animals were fasted for 24 hours and anesthetized with ether. Then, they were abdominally incised and blood was gathered from abdominal vena cava. They were sacrificed by the release of blood. Liver, kidneys, testes and epididymides were extracted and all the extracted organs were weighed. Only the testes were separately kept and observed under optical and electron microscopes. For biochemical finding test, serum was separated from blood with a centrifuge and the separated serum was analyzed with an automated blood biochemical analyzer, Dimension (Dupont, USA). Blood was put to another blood gathering bottle and then, analyzed with an automated blood cell analyzer, Celldyn (Abbott, USA).
The results are expressed as Mean±Standard Deviation values. For statistical analysis of the body weight, feed and water uptake, biochemical findings, hematological findings and the weight of organ in an acute toxicity test, verification was performed by one way analysis of variance (ANOVA) in case of equal distribution. In case significance was recognized in ANOVA, the Student's t-test was performed in the levels of p<0.05 and p<0.01.
The organs, i.e. liver, kidneys, testes and epididymides, were weighed and the results are shown in the following.

[1] = TCDD 6.9 μg/kg + UDCA 0.125 wt %
[2] = TCDD 6.9 μg/kg + UDCA 0.25 wt %
[3] = TCDD 27.5 μg/kg + UDCA 0.125 wt %
[4] = TCDD 27.5 μg/kg + UDCA 0.25 wt %

C[C@H](CCC(=O)O)[C@H]1CC[C@H]2[C@@H]3[C@@H](O)C[C@@H]4C[C@H](O)CC[C@]4(C)[C@H]3CC[C@]12C [UDCA, 3α, 7β-dihydroxy-5β-cholanoic acid]
Left epididymis Relative weight [1]: 0.121 ± 0.011 %
Left epididymis Weight [1]: 0.029 ± 0.003 g
Left kidney Relative weight [1]: 0.480 ± 0.050%
Left kidney Weight [1]: 0.116 ± 0.014 g
Left testis Relative weight [1]: 0.297 ± 0.020%
Left testis Weight [1]: 0.072 ± 0.006 g
Liver Relative weight [1]: 4.069 ± 0.167%
Liver Weight [1]: 0.980 ± 0.073 g
Right epididymis Relative weight [1]: 0.121 ± 0.014%
Right epididymis Weight [1]: 0.029 ± 0.003 g
Right kidney Relative weight [1]: 0.511 ± 0.049%
Right kidney Weight [1]: 0.123 ± 0.008 g
Right testis Relative weight [1]: 0.304 ± 0.020%
Right testis Weight [1]: 0.073 ± 0.007 g
Left epididymis Relative weight [2]: 0.121 ± 0.011 %
Left epididymis Weight [2]: 0.030 ± 0.003 g
Left kidney Relative weight [2]: 0.484 ± 0.036%
Left kidney Weight [2]: 0.119 ± 0.009 g
Left testis Relative weight [2]: 0.287 ± 0.036%
Left testis Weight [2]: 0.071 ± 0.008 g
Liver Relative weight [2]: 3.870 ± 0.289%
Liver Weight [2]: 0.954 ± 0.057 g
Right epididymis Relative weight [2]: 0.115 ± 0.009%
Right epididymis Weight [2]: 0.029 ± 0.002 g
Right kidney Relative weight [2]: 0.500 ± 0.048%
Right kidney Weight [2]: 0.123 ± 0.013 g
Right testis Relative weight [2]: 0.290 ± 0.030%
Right testis Weight [2]: 0.072 ± 0.008 g
Left epididymis Relative weight (TCDD 6.9 μg/kg + UDCA 0.5 wt %): 0.121 ± 0.010 %
Left epididymis Weight (TCDD 6.9 μg/kg + UDCA 0.5 wt %): 0.029 ± 0.003 g
Left kidney Relative weight (TCDD 6.9 μg/kg + UDCA 0.5 wt %): 0.500 ± 0.025%
Left kidney Weight (TCDD 6.9 μg/kg + UDCA 0.5 wt %): 0.121 ± 0.007 g
Left testis Relative weight (TCDD 6.9 μg/kg + UDCA 0.5 wt %): 0.310 ± 0.050%
Left testis Weight (TCDD 6.9 μg/kg + UDCA 0.5 wt %): 0.075 ± 0.010 g
Liver Relative weight (TCDD 6.9 μg/kg + UDCA 0.5 wt %): 4.258 ± 0.327%
Liver Weight (TCDD 6.9 μg/kg + UDCA 0.5 wt %): 1.028 ± 0.073 g
Right epididymis Relative weight (TCDD 6.9 μg/kg + UDCA 0.5 wt %): 0.114 ± 0.015%
Right epididymis Weight (TCDD 6.9 μg/kg + UDCA 0.5 wt %): 0.027 ± 0.004 g
Right kidney Relative weight (TCDD 6.9 μg/kg + UDCA 0.5 wt %): 0.516 ± 0.043%
Right kidney Weight (TCDD 6.9 μg/kg + UDCA 0.5 wt %): 0.125 ± 0.009 g
Right testis Relative weight (TCDD 6.9 μg/kg + UDCA 0.5 wt %): 0.307 ± 0.031%
Right testis Weight (TCDD 6.9 μg/kg + UDCA 0.5 wt %): 0.074 ± 0.007 g
Left epididymis Relative weight [3]: 0.112 ± 0.017%
Left epididymis Weight [3]: 0.027 ± 0.003 g
Left kidney Relative weight [3]: 0.517 ± 0.056 %
Left kidney Weight [3]: 0.127 ± 0.012 g
Left testis Relative weight [3]: 0.284 ± 0.025 %
Left testis Weight [3]: 0.070 ± 0.005 g
Liver Relative weight [3]: 4.832 ± 0.327%
Liver Weight [3]: 1.187 ± 0.086 g
Right epididymis Relative weight [3]: 0.105 ± 0.015 %
Right epididymis Weight [3]: 0.026 ± 0.003 g
Right kidney Relative weight [3]: 0.489 ± 0.055 %
Right kidney Weight [3]: 0.120 ± 0.013 g
Right testis Relative weight [3]: 0.285 ± 0.016 %
Right testis Weight [3]: 0.070 ± 0.003 g
Left epididymis Relative weight [4]: 0.120 ± 0.018%
Left epididymis Weight [4]: 0.029 ± 0.003 g
Left kidney Relative weight [4]: 0.508 ± 0.038 %
